T/C data for 18 compounds are collected here from PubChem BioAssay AID256 (DTP/NCI, 2004).

Molecules are shown by their SMILES. Several values for one entry are separate records, joined by “and”; a condition that tells them apart may be missing. Equal entries are not always repeated. Toxic doses and inconclusive results are not listed.

The assay concerns CD2F1 mice, L1210 leukemia ip, survival T/C. The assay is described as follows: NCI In Vivo Anticancer Drug Screen. Data for tumor model L1210 Leukemia (intraperitoneal) in CD2F1 (CDF1) mice. Particulars: higher = longer survival. In short, it runs like this: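 In this screen, transplantable tumors were grown in mice given either the compound or its vehicle. Results were expressed as the treated measurement relative to the control measurement.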

Where [1] appears, read: endpoint: mean survival time, dose: 100.0 mg/kg/injection, schedule: Q04DX003 (ip), vehicle: saline with Tween-80.
[2] abbreviates: endpoint: mean survival time, dose: 200.0 mg/kg/injection, schedule: Q04DX003 (ip), vehicle: saline with Tween-80.
Where [3] appears, read: endpoint: mean survival time, dose: 400.0 mg/kg/injection, schedule: Q04DX003 (ip), vehicle: saline with Tween-80.
[4] abbreviates: endpoint: mean survival time, dose: 100.0 mg/kg/injection, schedule: Q04DX003 (ip), vehicle: saline.
[5] abbreviates: endpoint: mean survival time, dose: 200.0 mg/kg/injection, schedule: Q04DX003 (ip), vehicle: saline.
Setting [6] is: endpoint: mean survival time, dose: 400.0 mg/kg/injection, schedule: Q04DX003 (ip), vehicle: saline.
[7] abbreviates: endpoint: mean survival time, dose: 100.0 mg/kg/injection, schedule: Q01DX001 (ip), vehicle: saline with Tween-80.
[8] abbreviates: endpoint: mean survival time, dose: 100.0 mg/kg/injection, schedule: Q04DX002 (ip), vehicle: saline with Tween-80.
The mark [9] stands for this setting: endpoint: mean survival time, dose: 200.0 mg/kg/injection, schedule: Q04DX002 (ip), vehicle: saline with Tween-80.
[10] abbreviates: endpoint: mean survival time, dose: 400.0 mg/kg/injection, schedule: Q04DX002 (ip), vehicle: saline with Tween-80.

Consider `CN(C)c1ccc2c(Nc3ccc(NS(C)(=O)=O)cc3)c3ccc(N(C)C)cc3nc2c1`, for which the T/C by setting is: (endpoint: median survival time, dose: 50.0 mg/kg/injection, schedule: Q01DX009 (ip), vehicle: Klucel (hydroxypropylcellulose) (HPC)) 170 % of control; (endpoint: median survival time, dose: 100.0 mg/kg/injection, schedule: Q01DX009 (ip), vehicle: Klucel (hydroxypropylcellulose) (HPC)) 151 % of control and 193 % of control; (endpoint: median survival time, dose: 200.0 mg/kg/injection, schedule: Q01DX009 (ip), vehicle: Klucel (hydroxypropylcellulose) (HPC)) 164 % of control and 174 % of control.

Take `Cc1cc(Cl)ccc1[NH-].Cc1cc(Cl)ccc1[NH-].[Cl][Pt+2][Cl]`: the T/C is, setting by setting: (endpoint: mean survival time, dose: 25.0 mg/kg/injection, schedule: Q04DX003 (ip), vehicle: saline with Tween-80) 100 % of control; (endpoint: mean survival time, dose: 50.0 mg/kg/injection, schedule: Q04DX003 (ip), vehicle: saline with Tween-80) 94 % of control; under setting [1], 94 % of control; under setting [2], 94 % of control; under setting [3], 97 % of control.

Turning to `CC(C)c1ccc(N=Nc2ccc(C(C)C)cc2)cc1`, the T/C is, setting by setting: (endpoint: mean survival time, dose: 100.0 mg/kg/injection, schedule: Q01DX001 (ip), vehicle: saline) 101 % of control; (endpoint: mean survival time, dose: 200.0 mg/kg/injection, schedule: Q01DX001 (ip), vehicle: saline) 97 % of control; (endpoint: mean survival time, dose: 400.0 mg/kg/injection, schedule: Q01DX001 (ip), vehicle: saline) 93 % of control.

In the case of `Cc1cccc(/C=C/c2cccc[n+]2[O-])[n+]1[O-]`, the T/C was 103 % of control under setting [4], 96 % of control under setting [5] and 96 % of control under setting [6].

`Oc1cc(O)cc(/C=C/c2ccc(O)c(O)c2)c1`: the T/C is 103 % of control (endpoint: median survival time, dose: 6.25 mg/kg/injection, schedule: Q01DX009 (ip), vehicle: DMSO); 109 % of control (endpoint: median survival time, dose: 12.5 mg/kg/injection, schedule: Q01DX009 (ip), vehicle: DMSO); 108 % of control and 109 % of control (endpoint: median survival time, dose: 25.0 mg/kg/injection, schedule: Q01DX009 (ip), vehicle: DMSO); 108 % of control and 109 % of control (endpoint: median survival time, dose: 50.0 mg/kg/injection, schedule: Q01DX009 (ip), vehicle: DMSO); 109 % of control (endpoint: median survival time, dose: 100.0 mg/kg/injection, schedule: Q01DX009 (ip), vehicle: DMSO).

Take `OC(c1ccccc1)(c1ccccc1)C1c2ccccc2-c2[nH]c3ccccc3c21` (stereo not drawn): the T/C is, setting by setting: (endpoint: mean survival time, dose: 25.0 mg/kg/injection, schedule: Q01DX001 (ip), vehicle: saline with Tween-80) 96 % of control; (endpoint: mean survival time, dose: 50.0 mg/kg/injection, schedule: Q01DX001 (ip), vehicle: saline with Tween-80) 93 % of control; under setting [7], 89 % of control.

As to `COC(=O)c1c(F)c(F)c(Nc2c(F)c(F)c(C(=O)OC)c(F)c2F)c(F)c1F`, the T/C by setting is: under setting [1], 95 % of control; under setting [2], 95 % of control; under setting [3], 91 % of control.

Take `Cc1ccc2c(c1)C(=O)/C(=C/c1ccccn1)CCO2`: the T/C is 92 % of control under setting [8], 88 % of control under setting [9] and 92 % of control under setting [10].

Consider `O=Nn1c2ccccc2c2ccccc21`, for which the T/C was 90 % of control (endpoint: mean survival time, dose: 50.0 mg/kg/injection, schedule: Q01DX009 (ip), vehicle: Klucel (hydroxypropylcellulose) (HPC)); 98 % of control (endpoint: mean survival time, dose: 100.0 mg/kg/injection, schedule: Q01DX009 (ip), vehicle: Klucel (hydroxypropylcellulose) (HPC)); 102 % of control (endpoint: mean survival time, dose: 200.0 mg/kg/injection, schedule: Q01DX009 (ip), vehicle: Klucel (hydroxypropylcellulose) (HPC)).

As for `CN1CCN(CN2C(=O)C3C4C=CC(C3C2=O)C2C3C(=O)N(CN5CCN(C)CC5)C(=O)C3C42)CC1` (stereo not drawn), the T/C reads like this: (endpoint: median survival time, dose: 7.2 mg/kg/injection, schedule: Q03HX027 (ip), vehicle: water) 106 % of control; (endpoint: median survival time, dose: 8.3 mg/kg/injection, schedule: Q03HX027 (ip), vehicle: water) 104 % of control; (endpoint: median survival time, dose: 12.0 mg/kg/injection, schedule: Q03HX027 (ip), vehicle: water) 114 % of control; (endpoint: median survival time, dose: 16.1 mg/kg/injection, schedule: Q01DX009 (ip), vehicle: water) 108 % of control; (endpoint: median survival time, dose: 24.8 mg/kg/injection, schedule: Q01DX009 (ip), vehicle: water) 102 % of control and 105 % of control and 109 % of control; (endpoint: median survival time, dose: 26.8 mg/kg/injection, schedule: Q01DX009 (ip), vehicle: water) 105 % of control. Moreover, the T/C (endpoint: median survival time, dose: 33.4 mg/kg/injection, schedule: Q03HX027 (ip), vehicle: water) was 172 % of control; the T/C (endpoint: median survival time, dose: 38.4 mg/kg/injection, schedule: Q03HX027 (ip), vehicle: water) is 114 % of control; the T/C (endpoint: median survival time, dose: 41.3 mg/kg/injection, schedule: Q01DX009 (ip), vehicle: water) was 124 % of control; the T/C (endpoint: median survival time, dose: 44.6 mg/kg/injection, schedule: Q01DX009 (ip), vehicle: water) was 152 % of control; the T/C (endpoint: median survival time, dose: 55.7 mg/kg/injection, schedule: Q03HX027 (ip), vehicle: water) is 103 % of control; the T/C (endpoint: median survival time, dose: 68.8 mg/kg/injection, schedule: Q01DX009 (ip), vehicle: water) was 178 % of control and 183 % of control and 219 % of control. Also, the T/C runs as follows: (endpoint: median survival time, dose: 74.4 mg/kg/injection, schedule: Q01DX009 (ip), vehicle: water) 255 % of control; (endpoint: median survival time, dose: 114.7 mg/kg/injection, schedule: Q01DX009 (ip), vehicle: water) 210 % of control and 243 % of control and 103 % of control.

As for `Cc1cn(CC(=O)C2(O)CCC3C4CCC5=CC(=O)CCC5(C)C4C(=O)CC32C)c(=O)[nH]c1=O` (stereo not drawn), the T/C by setting is: (endpoint: mean survival time, dose: 12.5 mg/kg/injection, schedule: Q04DX003 (ip), vehicle: Klucel (hydroxypropylcellulose) (HPC)) 94 % of control; (endpoint: mean survival time, dose: 25.0 mg/kg/injection, schedule: Q04DX003 (ip), vehicle: Klucel (hydroxypropylcellulose) (HPC)) 105 % of control; (endpoint: mean survival time, dose: 50.0 mg/kg/injection, schedule: Q04DX003 (ip), vehicle: Klucel (hydroxypropylcellulose) (HPC)) 94 % of control; (endpoint: mean survival time, dose: 100.0 mg/kg/injection, schedule: Q04DX003 (ip), vehicle: Klucel (hydroxypropylcellulose) (HPC)) 94 % of control; (endpoint: mean survival time, dose: 200.0 mg/kg/injection, schedule: Q04DX003 (ip), vehicle: Klucel (hydroxypropylcellulose) (HPC)) 94 % of control.

As for `COc1ccc(OC)c2c1CC(C(C)=O)CC2=O` (stereo not drawn), the T/C is, setting by setting: (endpoint: mean survival time, dose: 12.5 mg/kg/injection, schedule: Q01DX009 (ip), vehicle: water) 98 % of control; (endpoint: mean survival time, dose: 25.0 mg/kg/injection, schedule: Q01DX009 (ip), vehicle: water) 102 % of control; (endpoint: mean survival time, dose: 50.0 mg/kg/injection, schedule: Q01DX009 (ip), vehicle: water) 106 % of control; (endpoint: mean survival time, dose: 100.0 mg/kg/injection, schedule: Q01DX009 (ip), vehicle: water) 100 % of control; (endpoint: mean survival time, dose: 200.0 mg/kg/injection, schedule: Q01DX009 (ip), vehicle: water) 92 % of control.

Regarding `COc1cc2ccc3c(c2cc1OC)CCc1cn[nH]c1-3`, the T/C is 103 % of control under setting [8], 107 % of control under setting [9] and 103 % of control under setting [10].

As for `O=C(O)c1nc2ccccc2c(=O)[nH]1`, the T/C by setting is: (endpoint: mean survival time, dose: 50.0 mg/kg/injection, schedule: Q04DX002 (ip), vehicle: saline with Tween-80) 93 % of control; under setting [7], 102 % of control; under setting [8], 93 % of control; (endpoint: mean survival time, dose: 200.0 mg/kg/injection, schedule: Q01DX001 (ip), vehicle: saline with Tween-80) 92 % of control; under setting [9], 93 % of control.

Consider `CN1C(=S)[N+](C)(C)N=C1[O-]`, for which the T/C by setting is: (endpoint: mean survival time, dose: 50.0 mg/kg/injection, schedule: Q01DX009 (ip), vehicle: saline) 107 % of control; (endpoint: mean survival time, dose: 100.0 mg/kg/injection, schedule: Q01DX009 (ip), vehicle: saline) 108 % of control; under setting [4], 100 % of control; (endpoint: mean survival time, dose: 200.0 mg/kg/injection, schedule: Q01DX009 (ip), vehicle: saline) 113 % of control; under setting [5], 105 % of control; under setting [6], 101 % of control.

For `CCCCCCCCN(C#N)CCCCCCCC`, the T/C (endpoint: mean survival time, dose: 100.0 mg/kg/injection, schedule: Q01DX009 (ip), vehicle: saline with Tween-80) is 100 % of control; the T/C (endpoint: mean survival time, dose: 200.0 mg/kg/injection, schedule: Q01DX009 (ip), vehicle: saline with Tween-80) is 95 % of control; the T/C (endpoint: mean survival time, dose: 400.0 mg/kg/injection, schedule: Q01DX009 (ip), vehicle: saline with Tween-80) was 97 % of control.

Turning to `C=CCc1ccccc1OC`, the T/C under setting [4] was 95 % of control, the T/C under setting [5] is 104 % of control and the T/C under setting [6] is 95 % of control.

`Cc1ccc(C(C)C)cc1NC(=O)c1ccccc1C(=O)O`: the T/C was 95 % of control under setting [1], 95 % of control under setting [2] and 87 % of control under setting [3].
